Experimental data taken from patent US20240426807A1, “SCREENING SYSTEM” (Givaudan SA, priority 2021, published 2024).
“Also recorded” adds a separate entry of the source.

Key:
Format in all cases: cell-based
OR5AN1 [1] = target: T1, OR5AN1 (Homo sapiens, UniProt Q8NGI8); assay: Ligand-induced blasticidin resistance, OR5AN1 cells (pGL4.29-CRE-BLAST-OR); settings: HEK293T OR5AN1, odorant 10 μM, blasticidin 0.5-256 μg/ml, PrestoBlue viability day 4
T1 construct: expressed in transfected cells
T1 sequence (Q8NGI8 1-311): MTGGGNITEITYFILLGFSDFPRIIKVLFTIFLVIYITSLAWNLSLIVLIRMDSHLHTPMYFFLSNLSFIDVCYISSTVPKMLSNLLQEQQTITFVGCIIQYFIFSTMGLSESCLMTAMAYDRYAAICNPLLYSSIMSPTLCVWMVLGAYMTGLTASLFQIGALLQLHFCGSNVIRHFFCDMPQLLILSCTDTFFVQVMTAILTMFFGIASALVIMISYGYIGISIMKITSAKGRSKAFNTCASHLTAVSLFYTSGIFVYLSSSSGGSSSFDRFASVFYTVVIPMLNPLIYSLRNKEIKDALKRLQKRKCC
Source text: To generate a vector allowing positive selection of cell clones with a functional expression of a specific OR gene, a blasticidin resistance gene was placed downstream of SEQ ID NO: 4. The pGL4.29-CRE-Puro-OR vector generated as described in Example 1 was digested with BgIII and FseI to remove the comprised basal promoter and the complete puromycin resistance gene. The removed basal promoter sequence was amplified with the primers […] (SEQ ID NO: 28), […] (SEQ ID NO: 63), and the blasticidin S deaminase (bsd, SEQ ID NO: 64) encoding sequence was amplified by PCR using the primers […] (SEQ ID NO: 66) […] (SEQ ID NO: 67). The two overlapping PCR products were joined by fusion PCR using primers […] (SEQ ID NO: 28) and […] (SEQ ID NO: 68). The resulting DNA fragment was digested with BgIII/FseI and ligated into the digested vector to generate pGL4.29-CRE-Blast-OR.
This vector was used to generate stable cell lines as described in Example 1.
Stable clones containing a stable insertion of the pGL4.29-CRE-BLAST-OR construct with the receptor OR5AN1 (NCBI Genbank Gene ID: 390195) were then plated at a density of 3000 cells/per well in 100 μl Dubelcco's Modified Eagle medium (DMEM) in polyethyleneimide-coated, white 96 well microtiter plates with a transparent bottom. After cells were allowed to adhere for 24 h, 50 μl of medium containing different odorants (musk ketone or ethyl vanillin at 40 μM) was added to each well resulting in an odorant concentration of 13.3 μM. 6 h after odorant addition, 50 μl of medium containing blasticidin was added to reach a final concentration of 0.5-256 μg/ml in 10 two-fold dilution steps (day 1 of selection). This step further diluted the odorant to 10 μM. On day 4 of the selection (72 h after blasticidin addition), medium from each well was removed completely, 100 μl PrestoBlue® cell viability reagent (ThermoFisher Scientific, Catalog No: 14200-083) diluted in phosphate buffered saline containing 1 mg/ml glucose was added to each well and cells were incubated at 37° C. until a color change was visible in the wells containing no blasticidin. The fluorescence was determined at 560 excitation and 590 nm emission to assess relative cell metabolic activity, which is the net result of cell growth and cell killing in presence of the different blasticidin concentrations. The result was expressed as % viability relative to controls with no cells (0%) and cells treated with olfactory ligand only (100%).

OR10G7 = target: T2, OR10G7 (Homo sapiens, UniProt Q8NGN6, T5S); assay: Ligand-induced OR-dependent puromycin resistance, OR10G7 cells; settings: HEK293T, pGL4.29-CRE-Puro-Hygro-OR with OR10G7; musk ketone 10 μM, eugenol or isoeugenol 1 μM, ultravanil or vanitrope 100 μM; puromycin 0.015-16 μg/ml; PrestoBlue viability day 4
T2 construct: expressed in transfected cells
T2 sequence (Q8NGN6 1-311 T5S): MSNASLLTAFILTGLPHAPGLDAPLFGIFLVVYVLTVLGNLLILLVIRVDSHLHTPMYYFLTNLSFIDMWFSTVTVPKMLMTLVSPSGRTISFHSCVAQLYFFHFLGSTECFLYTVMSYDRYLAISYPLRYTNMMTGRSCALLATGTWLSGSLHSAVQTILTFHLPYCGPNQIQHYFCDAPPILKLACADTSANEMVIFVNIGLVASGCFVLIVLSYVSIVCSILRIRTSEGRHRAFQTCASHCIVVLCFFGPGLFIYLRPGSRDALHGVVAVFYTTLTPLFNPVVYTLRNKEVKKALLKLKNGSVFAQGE
Method: (§1) Stable clones selected with hygromycin containing a stable insertion of the pGL4.29-CRE-Puro-Hygro-OR construct described in Example 1 with either one of the receptors OR10G7, OR10G9 or OR5AN1 (NCBI Genbank Gene ID 390265, 219870 and 390195) were plated at a density of 3000 cells/per well in 200 μl Dubelcco's Modified Eagle medium (DMEM) in polyethyleneimide-coated, white 96 well microtiter plates with a transparent bottom. After cells were allowed to adhere for 24 h, they were exposed to different odorants (musk ketone at 10 μM, eugenol or isoeugenol at 1 μM, ultravanil or vanitrope at 100 μM). 7 h after odorant addition, 100 μl of the medium was removed and replaced with fresh medium with the same odorant concentrations and, in addition, puromycin to reach a final concentration of 0.015-16 μg/ml in 11 twofold dilution steps (day 1 of selection). On day 2 and 3, 100 μl of the medium was again removed and replaced with fresh medium with the same concentration of odorant and puromycin. On day 4 of the selection, medium from each well was removed completely, 100 ul PrestoBlue® cell viability reagent (ThermoFisher Scientific, Catalog No: 14200-083) diluted in phosphate buffered saline was added to each well and cells were incubated at 37° C. until a color change was visible in the wells containing no puromycin. The fluorescence was determined at 560 excitation and 590 nm emission to assess relative cell metabolic activity, which is the net result of cell growth and cell killing in presence of the different puromycin concentrations. The result was expressed as % viability relative to controls with no cells (0%) and cells treated with olfactory ligand only (100%).

OR5AN1 [2] = target: T1, OR5AN1; assay: Ligand-induced OR-dependent puromycin resistance, OR5AN1 cells; settings: HEK293T, pGL4.29-CRE-Puro-Hygro-OR with OR5AN1; musk ketone 10 μM, eugenol or isoeugenol 1 μM, ultravanil 100 μM; puromycin 0.015-16 μg/ml; PrestoBlue viability day 4
Method: as §1

OR10G9 = target: T3, OR10G9 (Homo sapiens, UniProt Q8NGN4); assay: Ligand-induced OR-dependent puromycin resistance, OR10G9 cells; settings: HEK293T, pGL4.29-CRE-Puro-Hygro-OR with OR10G9; musk ketone 10 μM, eugenol or isoeugenol 1 μM, ultravanil or vanitrope 100 μM; puromycin 0.015-16 μg/ml; PrestoBlue viability day 4
T3 construct: expressed in transfected cells
T3 sequence (Q8NGN4 1-311): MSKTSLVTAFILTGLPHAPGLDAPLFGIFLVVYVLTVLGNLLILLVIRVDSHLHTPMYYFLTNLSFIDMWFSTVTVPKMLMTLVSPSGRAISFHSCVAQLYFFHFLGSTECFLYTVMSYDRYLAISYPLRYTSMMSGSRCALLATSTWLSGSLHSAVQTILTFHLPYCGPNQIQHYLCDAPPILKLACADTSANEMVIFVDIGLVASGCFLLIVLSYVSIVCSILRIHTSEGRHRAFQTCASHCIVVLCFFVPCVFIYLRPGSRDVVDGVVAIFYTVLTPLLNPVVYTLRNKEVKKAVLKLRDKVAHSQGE
Method: as §1

OR5A2 (clone 3) = target: T4, OR5A2 (clone 3) (Homo sapiens, UniProt Q8NGI9); assay: Ligand-induced puromycin resistance of isolated clone 3 containing OR5A2; settings: for puromycin resistance of clone 3 in presence of odorant: clone 3 (OR5A2), 11 concentrations of puromycin, co-treated with olfactory ligands
T4 construct: expressed in transfected cells; clone 3 selected with musk ambrette and puromycin
T4 sequence (Q8NGI9 with tags, fused parts or gaps): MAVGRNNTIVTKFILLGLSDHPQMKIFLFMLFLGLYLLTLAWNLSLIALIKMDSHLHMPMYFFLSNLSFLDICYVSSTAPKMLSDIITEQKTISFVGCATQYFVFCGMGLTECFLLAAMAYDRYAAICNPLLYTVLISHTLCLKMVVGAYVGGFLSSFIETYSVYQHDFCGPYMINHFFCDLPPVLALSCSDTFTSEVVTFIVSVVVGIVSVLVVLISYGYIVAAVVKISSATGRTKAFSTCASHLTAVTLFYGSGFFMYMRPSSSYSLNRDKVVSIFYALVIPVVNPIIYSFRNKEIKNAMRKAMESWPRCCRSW

[3] = target: T5, pool of cells with OR5A1, OR5A2, OR5AN1, OR6Y1, OR10G4, OR10G7 or OR10G9 (Homo sapiens, UniProt Q8NGN3); assay: Selection of cognate-receptor cells from a pool of OR-expressing cells with the target ligand and puromycin; settings: 100 μM vanitrope, puromycin 1 μg/ml, pool of 7 OR transfections
T5 construct: expressed in transfected cells; host or cells: HEK293T stably expressing RTP1S and RTP2; 7 separate transfections pooled
T5 sequence (Q8NGN3 1-311): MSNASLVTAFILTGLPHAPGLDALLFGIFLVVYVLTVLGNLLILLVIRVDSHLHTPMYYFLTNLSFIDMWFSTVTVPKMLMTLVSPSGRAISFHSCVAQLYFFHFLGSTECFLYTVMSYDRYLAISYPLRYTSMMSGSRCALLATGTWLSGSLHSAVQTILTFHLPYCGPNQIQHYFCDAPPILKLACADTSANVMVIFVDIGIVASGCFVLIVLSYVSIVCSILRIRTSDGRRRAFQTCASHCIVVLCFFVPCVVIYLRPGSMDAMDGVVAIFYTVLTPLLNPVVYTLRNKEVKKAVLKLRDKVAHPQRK
Method: For many ligands the cognate OR receptors are not known (“orphan receptors”), or it is unknown among a pool of receptors, which one has the best affinity for a ligand of interest, e.g. a perfumery note of particular interest. Thus, the ligand-induced selection pressure can be used to enrich a specific OR-expressing cell from a pool of OR-expressing cells in the presence of a ligand of interest. HEK293T cells stably expressing RTP1S and RTP2 were seeded into 7 wells of 6-well plates at 330,000 cells/well.
The next day, the cells of each well were transfected with 2 μg of a PvuI-linearized pGL4.29-CRE-Puro-Hygro-OR construct harboring one of the receptors OR5A1 (NCBI Genbank Gene ID: 219982), OR5A2 (NCBI Genbank Gene ID: 219981), OR5AN1 NCBI Genbank Gene ID: 390195, SEQ ID NO: 70), OR6Y1 (NCBI Genbank Gene ID: 391112), OR10G4 (NCBI Genbank Gene ID: 390264, SEQ ID NO: 72), OR10G7 (NCBI Genbank Gene ID: 390265, SEQ ID NO: 71), or OR10G9 (NCBI Genbank Gene ID: 219870). 24 h after transfection, the cells of all 7 transfections were harvested and pooled. 350 cells of this pool of cells with different OR genes inserted were then seeded into each well of seven 96-well plates.
3 days later, cells were stimulated with ligands for either OR5AN1 (10 μM musk ketone), OR10G7 (1 μM eugenol), or OR10G4 (100 μM vanitrope). One plate was treated with DMSO only. 6h after the addition of the OR ligands, puromycin was added to each plate at a final concentration of 1 μg/ml. On every day during the following week, the medium on all plates was replaced with fresh medium containing the corresponding ligand and puromycin. The plates were then searched for wells containing only a single colony of puromycin-resistant cells. The cells of those colonies were transferred to larger plates and grown until they had multiplied to about 8 Mio cells. The genomic DNA of 2 Mio cells of each clone were isolated using the Puregene kit according to the manufacturer's protocol. […]

SMILES	puromycin resistance in presence of odorant versus solvent control (OR10G7)	puromycin resistance in presence of odorant versus solvent control (OR5AN1 [2])	puromycin resistance in presence of odorant versus solvent control (OR10G9)	puromycin resistance of clone 3 in presence of odorant (OR5A2 (clone 3))	other results
CCOc1cc(C=O)ccc1O [ethyl vanillin]					blasticidin resistance in presence of odorant versus solvent control (OR5AN1 [1]): equally sensitive to blasticidin as in presence of the solvent control; blasticidin resistance in presence of odorant versus solvent control (OR5AN1 [1]; listed as ethylvanillin): does not increase resistance over solvent control
CC=Cc1ccc(O)c(OC)c1 [isoeugenol]	increased resistance to puromycin; also recorded: strongly enhanced puromycin resistance	do not increase resistance over solvent control; also recorded: the resistance was equal to the solvent control	no increased resistance		
COc1c(C(C)(C)C)cc([N+](=O)[O-])c(C)c1[N+](=O)[O-] [musk ambrette]				increased resistance to puromycin	survival of clone 3 under puromycin treatment with ligand (OR5A2 (clone 3); musk ambrette 30 μM, puromycin 3 μg/ml, continuous exposure): able to survive puromycin treatment in presence of the ligand musk ambrette but not in its absence
CC(OC(C)(C)COC(=O)C1CC1)C1CCCC(C)(C)C1 (centres unmarked) [serenolide]				increased resistance to puromycin	
CCOc1cc(C)ccc1O [ultravanil, vanilla cresol]	increased resistance to puromycin; also recorded: strongly enhanced puromycin resistance	do not increase resistance over solvent control; also recorded: the resistance was equal to the solvent control	increased resistance to puromycin; also recorded: selectively enhanced resistance		
C/C=C/c1ccc(OCC)c(O)c1 [vanitrope, propenyl guaethol]	increased resistance to puromycin; also recorded: strongly enhanced puromycin resistance		increased resistance to puromycin; also recorded: selectively enhanced resistance		colonies selected with the ligand that contained OR10G4 [3]: 8 out of 8
